Where two headings read alike, the source gives them in different places.
What was measured:
[1] = test system: human lung cancer cell line (A459); assay: MTT assay, growth inhibition of A549 cells; format: cell-based; conditions: for IC50: Homo sapiens
Procedure: (§1) To evaluate the anticancer activity of the oxindole derivatives produced and analyzed in examples 1 to 8, MTT assay was performed to confirm the growth inhibitory effect on cancer cells. More specifically, human prostate adenocarcinoma cell line (LNCaP), human breast cancer cell line (MCF-7), human ovarian cancer cell line (SKOV3), human lung cancer cell line […] and human renal adenocarcinoma cell line (786-O) were cultured in DMEM medium supplemented with 1% penicillin/streptomycin and 10% fetal bovine serum (All from Life Technologies, Grand Island, N.Y.). Cells were seeded in 96-well plates (3×10^3 cells/well) containing 100 μL of growth medium for 24 hours. After the medium was removed, 100 μL of each of the different analogues (dissolved in DMSO to 0.025% or less) was added to each well and cultured at 37° C. for 48 hours. After 48 hours of incubation, 100 μL of MTT reagent was added to each well. After incubation at 37° C. for 4 hours, the supernatant was aspirated, and the formazan crystals were dissolved in 100 μL of DMSO at 37° C. for 10 minutes with gentle stirring. Absorbance per well was measured at 540 nm using a VERSA max microplate reader (Molecular Devices Corp.). IC50 values were defined as compound concentrations that inhibited cell proliferation by 50% compared to cells treated with the highest amount of DMSO (0.025%) and were considered to be 100% viability.

[2] = test system: human renal adenocarcinoma cell line (786-O); assay: MTT assay, growth inhibition of 786-O cells; format: cell-based; conditions: for IC50: Homo sapiens; for inhibitory activity in 786-O (in words): summary of Table 3, 786-O
Procedure: as §1

[3] = test system: human breast cancer cell line (MCF-7); assay: MTT assay, growth inhibition of MCF-7 cells; format: cell-based
Procedure: as §1

[4] = test system: human prostate adenocarcinoma cell line (LNCaP); assay: MTT assay, growth inhibition of LNCaP cells; format: cell-based; conditions: for IC50: Homo sapiens, LNCaP; for inhibitory activity in LNCaP (in words): summary of Table 3, LNCaP
Procedure: as §1

[5] = test system: human ovarian cancer cell line (SKOV3); assay: MTT assay, growth inhibition of SKOV3 cells; format: cell-based
Procedure: as §1

all carcinomas = assay: MTT assay, summary over all five cancer cell lines; format: cell-based, human; conditions: summary of Table 3, all five cell lines
Procedure: as §1

[6] = MTT, 48 hours incubation, A549, read-out: A549 (IC50)
[7] = 786-0, MTT, 48 hours incubation, 786-O, read-out: 786-O (IC50)
[8] = MCF7, MTT, 48 hours incubation, MCF-7, read-out: MCF-7 (IC50)
[9] = MTT, 48 hours incubation, read-out: LNCaP (IC50)
[10] = SK-OV-3, MTT, 48 hours incubation, SKOV3, read-out: SKOV3 (IC50)
[11] = 48 h, read-out: A549 (IC50, μM)
[12] = 786-0, 48 h, read-out: 786-O (IC50, μM)
[13] = MCF7, 48 h, read-out: MCF-7 (IC50, μM)
[14] = 48 h, read-out: LNCaP (IC50, μM)
[15] = SK-OV-3, 48 h, read-out: SKOV3 (IC50, μM)

IC50 [1, 6] [µM] | IC50 [2, 7] [µM] | IC50 [3, 8] [µM] | IC50 [4, 9] [µM] | IC50 [5, 10] [µM] | Structure (SMILES) | inhibitory activity against all carcinomas (in words) (all carcinomas) | inhibitory activity in 786-O (in words) [2] | inhibitory activity in LNCaP (in words) [4] | inhibitory activity in A549 (in words) ([1]; summary of Table 3, A549) | IC50 [1, 11] [µM] | IC50 [2, 12] [µM] | IC50 [3, 13] [µM] | IC50 [4, 14] [µM] | IC50 [5, 15] [µM]
17.6 | 12.2 | 14.7 | 13.9 | 15.1 | CCCCOC(=O)CC1C(=O)N(Nc2ccccc2CC)c2c(CC)cccc21 (stereo not shown) [6b, Butyl 2-(7-ethyl-1-((2-ethylphenyl)amino)-2-oxoindolin-3-yl)acetate] | excellent |  |  |  |  |  |  |  | 
> 50 | > 50 | > 50 | > 50 | > 50 | CCc1cccc2c1NC(=O)C2CC(=O)OC(C)C (stereo not shown) [8b, Isopropyl 2-(7-ethyl-2-oxoindolin-3-yl)acetate] |  |  |  |  |  |  |  |  | 
> 38.6 | 33.1 | 40.4 | 33 | > 50 | CCc1ccccc1NN1C(=O)C(CC(=O)NC2CCCCC2)c2cccc(CC)c21 (stereo not shown) [4d, N-Cyclohexyl-2-(7-ethyl-1-((2-ethylphenyl)amino)-2-oxoindolin-3-yl)acetamide] |  |  |  |  |  |  |  |  | 
> 50 | 36.6 | > 50 | 15.3 | > 50 | CCc1ccccc1NN1C(=O)C(CC(=O)NC(C)(C)C)c2cccc(CC)c21 (stereo not shown) [4e, N-(tert-butyl)-2-(7-ethyl-1-((2-ethylphenyl)amino)-2-oxoindolin-3-yl)acetamide] |  |  |  |  |  |  |  |  | 
> 50 | > 50 | > 50 | > 50 | > 50 | CCc1cccc(NN2C(=O)C(CC(=O)NC)c3ccc(CC)cc32)c1 (stereo not shown) [3o, 2-(6-Ethyl-1-((3-ethylphenyl)amino)-2-oxoindolin-3-yl)-N-methylacetamide] |  |  |  |  |  |  |  |  | 
> 50 | 32.6 | > 50 | 33.5 | > 50 | CCc1ccccc1NN1C(=O)C(CC(=O)NC(=O)OC)c2cccc(CC)c21 (stereo not shown) [4i, Methyl (2-(7-ethyl-1-((2-ethylphenyl)amino)-2-oxoindolin-3-yl)acetyl)carbamate] |  |  |  |  |  |  |  |  | 
33.3 | 14.7 | 20.5 | 15.5 | 21.3 | CNC(=O)CC1C(=O)N(Nc2cccc(Cl)c2C)c2c1ccc(Cl)c2C (stereo not shown) [3e, 2-(6-Chloro-1-((3-chloro-2-methylphenyl)amino)-7-methyl-2-oxoindolin-3-yl)-N-methylacetamide] | excellent |  |  |  |  |  |  |  | 
28.9 | 10.5 | 16.6 | 12.2 | 20.3 | CCc1ccccc1NN1C(=O)C(CC(=O)NCc2ccccc2)c2cccc(CC)c21 (stereo not shown) [4c, N-Benzyl-2-(7-ethyl-1-((2-ethylphenyl)amino)-2-oxoindolin-3-yl)acetamide] | excellent |  |  |  |  |  |  |  | 
> 50 | 29.5 | > 50 | 30.2 | 44.5 | CNC(=O)CC1C(=O)N(Nc2ccc(Cl)cc2C)c2c(C)cc(Cl)cc21 (stereo not shown) [3i, 2-(5-Chloro-1-((4-chloro-2-methylphenyl)amino)-7-methyl-2-oxoindolin-3-yl)-N-methylacetamide] |  | excellent inhibitor activity | excellent inhibitor activity |  |  |  |  |  | 
> 50 | > 50 | > 50 | 32.2 | > 50 | CCNC(=O)CC1C(=O)N(Nc2ccccc2CC)c2c(CC)cccc21 (stereo not shown) [4b, N-Ethyl-2-(7-ethyl-1-((2-ethylphenyl)amino)-2-oxoindolin-3-yl)acetamide] |  | excellent activity | excellent activity | excellent activity |  |  |  |  | 
24 | 13.3 | 14.8 | 12.8 | 16.9 | CNC(=O)CC1C(=O)N(Nc2cccc(Br)c2C)c2c1ccc(Br)c2C (stereo not shown) [3f, 2-(6-bromo-1-((3-bromo-2-methylphenyl)amino)-7-methyl-2-oxoindolin-3-yl)-N-methylacetamide] | excellent |  |  |  |  |  |  |  | 
> 50 | > 50 | > 50 | > 50 | > 50 | CCc1ccccc1NN1C(=O)C(CC(=O)OC)c2cccc(CC)c21 (stereo not shown) [6a, Methyl 2-(7-ethyl-1-((2-ethylphenyl)amino)-2-oxoindolin-3-yl)acetate] |  |  |  |  |  |  |  |  | 
> 50 | 40.9 | > 50 | 44.6 | > 50 | CNC(=O)CC1C(=O)N(Nc2cccc(C)c2C)c2c1ccc(C)c2C (stereo not shown) [3c, 2-(1-((2,3-Dimethylphenyl)amino)-6,7-dimethyl-2-oxoindolin-3-yl)-N-methylacetamide] |  |  |  |  |  |  |  |  | 
> 50 | > 50 | > 50 | > 50 | > 50 | CNC(=O)CC1C(=O)N(Nc2ccccc2)c2ccccc21 (stereo not shown) [3m, N-methyl-2-(2-oxo-1-(phenylamino)indolin-3-yl)acetamide] |  |  |  |  |  |  |  |  | 
> 50 | > 50 | > 50 | > 50 | > 50 | CNC(=O)CC1C(=O)N(Nc2ccc(C)cc2C)c2c(C)cc(C)cc21 (stereo not shown) [3g, 2-(1-((2,4-dimethylphenyl)amino)-5,7-dimethyl-2-oxoindolin-3-yl)-N-methylacetamide] |  |  |  |  |  |  |  |  | 
> 50 | 41.3 | > 50 | 42.9 | > 50 | CNC(=O)CC1C(=O)N(Nc2ccc(F)cc2C)c2c(C)cc(F)cc21 (stereo not shown) [3h, 2-(5-Fluoro-1-((4-fluoro-2-methylphenyl)amino)-7-methyl-2-oxoindolin-3-yl)-N-methylacetamide] |  |  |  |  |  |  |  |  | 
> 50 | 42.7 | > 50 | 42.4 | > 50 | CNC(=O)CC1C(=O)N(Nc2cc(Br)ccc2C)c2c(C)ccc(Br)c21 (stereo not shown) [3l, 2-(4-Bromo-1-((5-bromo-2-methylphenyl)amino)-7-methyl-2-oxoindolin-3-yl)-N-methylacetamide] |  |  |  |  |  |  |  |  | 
> 50 | > 50 | > 50 | > 50 | > 50 | CCc1ccccc1NN1C(=O)C(CC(N)=O)c2cccc(CC)c21 (stereo not shown) [4f, 2-(7-Ethyl-1-((2-ethylphenyl)amino)-2-oxoindolin-3-yl)acetamide] |  |  |  |  |  |  |  |  | 
> 50 | > 50 | > 50 | > 50 | > 50 | CNC(=O)CC1C(=O)N(Nc2ccc(C)cc2)c2ccc(C)cc21 (stereo not shown) [3n, N-Methyl-2-(5-methyl-2-oxo-1-(p-tolylamino)indolin-3-yl)acetamide] |  |  |  |  |  |  |  |  | 
 |  |  |  |  | CCc1ccccc1NN1C(=O)C(CC(=O)N[C@@H](C)C(=O)OC)c2cccc(CC)c21 (stereo partly drawn) [4j, Methyl (2-(7-ethyl-1-((2-ethylphenyl)amino)-2-oxoindolin-3-yl)acetyl)-L-alaninate] |  |  |  |  | > 50 | > 50 | > 50 | > 50 | > 50
> 50 | 30.5 | 45.5 | 14.5 | > 50 | CCc1ccccc1NN1C(=O)C(CC(=O)OC(C)C)c2cccc(CC)c21 (stereo not shown) [6c, Isopropyl 2-(7-ethyl-1-((2-ethylphenyl)amino)-2-oxoindolin-3-yl)acetate] |  |  | excellent activity |  |  |  |  |  | 
> 50 | > 50 | > 50 | > 50 | > 50 | CNC(=O)CC1C(=O)N(Nc2cccc(F)c2C)c2c1ccc(F)c2C (stereo not shown) [3d, 2-(6-Fluoro-1-((3-fluoro-2-methylphenyl)amino)-7-methyl-2-oxoindolin-3-yl)-N-methylacetamide] |  |  |  |  |  |  |  |  | 
> 50 | > 50 | > 50 | > 50 | > 50 | CNC(=O)CC1C(=O)N(Nc2ccccc2C)c2c(C)cccc21 (stereo not shown) [3b, N-Methyl-2-(7-methyl-2-oxo-1-(o-tolylamino)indolin-3-yl)acetamide] |  |  |  |  |  |  |  |  | 
 |  |  |  |  | CCOC(=O)NC(=O)CC1C(=O)N(Nc2ccccc2CC)c2c(CC)cccc21 (stereo not shown) [4h, Ethyl (2-(7-ethyl-1-((2-ethylphenyl)amino)-2-oxoindolin-3-yl)acetyl)carbamate] |  |  |  |  | > 50 | > 50 | > 50 | > 50 | > 50

— patent US10322999B2, “Oxindoles derivatives, preparation method thereof and pharmaceutical compositions for the prevention or treatment of cancer containing the same as an active ingredient” (RESEARCH & BUSINESS FOUNDATION SUNGKYUNKWAN UNIVERSITY, priority 2017, dated 2019)
